Numbers after ± are expanded uncertainties.
Conditions: Liquid; for speed of sound: Pulse-echo method; for mass density: Vibrating tube method

CCCn1cc[n+](C)c1.O=S(=O)([N-]S(=O)(=O)C(F)(F)F)C(F)(F)F
Conditions	mass density [kg/m3]	speed of sound [m/s]
318.15 K, 10000 kPa	–	1225.2 ± 3.1
318.15 K, 10020 kPa	1464.41 ± 2.7	–
318.15 K, 13500 kPa	–	1236.8 ± 3.1
318.15 K, 14980 kPa	1467.91 ± 2.9	–
318.15 K, 17000 kPa	–	1248.2 ± 3.1
318.15 K, 19750 kPa	1471.3 ± 3	–
318.15 K, 20000 kPa	–	1257.7 ± 3.1
318.15 K, 25860 kPa	1475.51 ± 3.2	–
318.15 K, 30000 kPa	–	1288.7 ± 3.2
318.15 K, 31480 kPa	1479.58 ± 3.3	–
318.15 K, 37770 kPa	1483.63 ± 3.5	–
318.15 K, 40000 kPa	–	1317.8 ± 3.2
318.15 K, 44170 kPa	1487.95 ± 3.7	–
318.15 K, 50000 kPa	–	1345.7 ± 3.2
318.15 K, 50750 kPa	1492.22 ± 3.9	–
318.15 K, 59590 kPa	1498.46 ± 4.1	–
318.15 K, 60000 kPa	–	1372.2 ± 3.2
318.15 K, 70000 kPa	–	1397.8 ± 3.2
318.15 K, 80000 kPa	–	1422.3 ± 3.2
318.15 K, 90000 kPa	–	1446.3 ± 3.2
318.15 K, 100000 kPa	–	1468.9 ± 3.2
318.15 K, 112500 kPa	–	1496.5 ± 3.2
318.15 K, 125000 kPa	–	1523.2 ± 3.2
318.15 K, 137510 kPa	–	1548.4 ± 3.2
318.15 K, 150000 kPa	–	1572.9 ± 3.2
318.15 K, 162500 kPa	–	1596.6 ± 3.2
318.15 K, 175000 kPa	–	1620 ± 3.2
318.15 K, 187500 kPa	–	1642.7 ± 3.2
318.15 K, 200000 kPa	–	1664.6 ± 3.2
323.15 K, 100 kPa	1451.66 ± 2.5	–
323.15 K, 1830 kPa	1452.94 ± 2.5	–
323.15 K, 10020 kPa	1459.11 ± 2.7	–
323.15 K, 14980 kPa	1462.75 ± 2.9	–
323.15 K, 19750 kPa	1466.15 ± 3	–
323.15 K, 25860 kPa	1470.44 ± 3.1	–
323.15 K, 31480 kPa	1474.24 ± 3.3	–
323.15 K, 37770 kPa	1478.57 ± 3.5	–
323.15 K, 44170 kPa	1482.86 ± 3.6	–
323.15 K, 50750 kPa	1487.24 ± 3.8	–
323.15 K, 59590 kPa	1493.03 ± 4.1	–
325.15 K, 100 kPa	1449.44 ± 2.5	–
325.15 K, 1830 kPa	1450.74 ± 2.5	–
325.15 K, 10020 kPa	1456.98 ± 2.7	–
325.15 K, 14980 kPa	1460.64 ± 2.8	–
325.15 K, 19750 kPa	1464.08 ± 3	–
325.15 K, 25860 kPa	1468.44 ± 3.1	–
325.15 K, 31480 kPa	1472.46 ± 3.3	–
325.15 K, 37770 kPa	1476.81 ± 3.5	–
325.15 K, 44170 kPa	1481.18 ± 3.6	–
325.15 K, 50750 kPa	1485.62 ± 3.8	–
325.15 K, 59590 kPa	1491.56 ± 4.1	–
327.15 K, 100 kPa	1447.19 ± 2.5	–
327.15 K, 1830 kPa	1448.52 ± 2.5	–
327.15 K, 10020 kPa	1454.88 ± 2.7	–
327.15 K, 14980 kPa	1458.57 ± 2.8	–
327.15 K, 19750 kPa	1461.98 ± 3	–
327.15 K, 25860 kPa	1466.38 ± 3.1	–
327.15 K, 31480 kPa	1470.37 ± 3.3	–
327.15 K, 37770 kPa	1474.75 ± 3.4	–
327.15 K, 44170 kPa	1479.18 ± 3.6	–
327.15 K, 50750 kPa	1483.65 ± 3.8	–
327.15 K, 59590 kPa	1489.6 ± 4.1	–
328.15 K, 500 kPa	–	1170.9 ± 3.1
328.15 K, 3500 kPa	–	1181.8 ± 3.1
328.15 K, 7000 kPa	–	1194.2 ± 3.1
328.15 K, 10000 kPa	–	1204.7 ± 3.1
328.15 K, 13500 kPa	–	1216.4 ± 3.1
328.15 K, 17000 kPa	–	1228 ± 3.1
328.15 K, 20000 kPa	–	1237.7 ± 3.1
328.15 K, 30000 kPa	–	1269.2 ± 3.2
328.15 K, 40000 kPa	–	1299.1 ± 3.2
328.15 K, 50000 kPa	–	1327.3 ± 3.2
328.15 K, 60000 kPa	–	1354.2 ± 3.2
328.15 K, 70000 kPa	–	1380.1 ± 3.2
328.15 K, 80000 kPa	–	1405.1 ± 3.2
328.15 K, 90000 kPa	–	1429.1 ± 3.2
328.15 K, 100000 kPa	–	1452.2 ± 3.2
328.15 K, 112500 kPa	–	1480.1 ± 3.2
328.15 K, 125000 kPa	–	1506.9 ± 3.2
328.15 K, 137510 kPa	–	1532.8 ± 3.2
328.15 K, 150000 kPa	–	1557 ± 3.2
328.15 K, 162500 kPa	–	1581.2 ± 3.2
328.15 K, 175000 kPa	–	1604.6 ± 3.2
328.15 K, 187500 kPa	–	1627.3 ± 3.2
328.15 K, 200000 kPa	–	1649.6 ± 3.2
329.15 K, 100 kPa	1444.85 ± 2.4	–
329.15 K, 1830 kPa	1446.17 ± 2.5	–
329.15 K, 10020 kPa	1452.55 ± 2.7	–
329.15 K, 14980 kPa	1456.27 ± 2.8	–
329.15 K, 19750 kPa	1459.81 ± 2.9	–
329.15 K, 25860 kPa	1464.24 ± 3.1	–
329.15 K, 31480 kPa	1468.26 ± 3.3	–
329.15 K, 37770 kPa	1472.67 ± 3.4	–
329.15 K, 44170 kPa	1477.09 ± 3.6	–
329.15 K, 50750 kPa	1481.63 ± 3.8	–
329.15 K, 59590 kPa	1487.58 ± 4	–
331.15 K, 100 kPa	1442.53 ± 2.4	–
331.15 K, 1830 kPa	1443.83 ± 2.5	–
331.15 K, 10020 kPa	1450.37 ± 2.7	–
331.15 K, 14980 kPa	1454.12 ± 2.8	–
331.15 K, 19750 kPa	1457.75 ± 2.9	–
331.15 K, 25860 kPa	1462.22 ± 3.1	–
331.15 K, 31480 kPa	1466.27 ± 3.2	–
331.15 K, 37770 kPa	1470.7 ± 3.4	–
331.15 K, 44170 kPa	1475.13 ± 3.6	–
331.15 K, 50750 kPa	1479.63 ± 3.8	–
331.15 K, 59590 kPa	1485.58 ± 4	–
333.15 K, 100 kPa	1440.12 ± 2.4	–
333.15 K, 1830 kPa	1441.48 ± 2.5	–
333.15 K, 10020 kPa	1448.04 ± 2.7	–
333.15 K, 14980 kPa	1451.88 ± 2.8	–
333.15 K, 19750 kPa	1455.51 ± 2.9	–
333.15 K, 25860 kPa	1460.01 ± 3.1	–
333.15 K, 31480 kPa	1464.11 ± 3.2	–
333.15 K, 37770 kPa	1468.58 ± 3.4	–
333.15 K, 44170 kPa	1473.05 ± 3.6	–
333.15 K, 50750 kPa	1477.56 ± 3.8	–
333.15 K, 59590 kPa	1483.54 ± 4	–
338.15 K, 1420 kPa	–	1153.5 ± 3.1
338.15 K, 3500 kPa	–	1161.2 ± 3.1
338.15 K, 7000 kPa	–	1173.8 ± 3.1
338.15 K, 10000 kPa	–	1184.4 ± 3.1
338.15 K, 13500 kPa	–	1196.6 ± 3.1
338.15 K, 17000 kPa	–	1208.3 ± 3.1
338.15 K, 20000 kPa	–	1218.2 ± 3.1
338.15 K, 30000 kPa	–	1250.4 ± 3.2
338.15 K, 40000 kPa	–	1280.7 ± 3.2
338.15 K, 50000 kPa	–	1309.2 ± 3.2
338.15 K, 60000 kPa	–	1336.7 ± 3.2
338.15 K, 70000 kPa	–	1362.9 ± 3.2
338.15 K, 80000 kPa	–	1388.1 ± 3.2
338.15 K, 90000 kPa	–	1412.3 ± 3.2
338.15 K, 100000 kPa	–	1435.8 ± 3.2
338.15 K, 112500 kPa	–	1463.9 ± 3.2
338.15 K, 125000 kPa	–	1491.1 ± 3.2
338.15 K, 137510 kPa	–	1517 ± 3.2
338.15 K, 150000 kPa	–	1541.4 ± 3.2
338.15 K, 162500 kPa	–	1566 ± 3.2
338.15 K, 175000 kPa	–	1589.5 ± 3.2

Reference: the NIST ThermoML archive (doi:10.1021/je060203o)
